Results taken from patent US20050113450A1, “Antibacterial agents” (priority 2002, published 2005).
In brackets after ≈: the same amount, converted by molar mass.

Tested on: SA 9218
Experiment: MIC by standard agar dilution method
Assay type: cell-based
Conditions: Mueller Hinton agar, 10^4 to 10^5 cells per spot, incubated overnight at 35° C., lowest concentration that inhibits visible growth
Outline: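 MIC read after overnight 35 °C incubation as lowest drug level preventing visible growth. Inoculum of roughly 10^4–10^5 cells per spot (0.5 McFarland, 1:20 in TSB) applied to Mueller Hinton agar containing serial 2-fold compound dilutions.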

Row | Structure (SMILES) | MIC | SA 9218 MIC
1 | O=C(Nc1ccc(Br)cc1C(=O)O)c1cccc(C(=NO)c2ccccc2)c1 [drawing 1035] | 0.5 µg/mL (≈ 1.14 µM) | 
2 | O=C(Nc1ccc(Br)cc1C(=O)O)c1cccc(OCc2ccccc2)c1 [drawing 1037] | 4 µg/mL (≈ 9.38 µM) | 
3 | CCCC(Oc1ccc(C(=O)Nc2ccc(Br)cc2C(=O)O)cc1)C(=O)OCC (stereo not shown) [drawing 1052] |  | 64 µg/mL
4 | O=C(Nc1ccc(Cl)cc1C(=O)O)c1cccc(C(=NO)c2ccco2)c1 [drawing 1086] |  | 2 µg/mL
5 | CCCC(Oc1ccc(C(=O)Nc2ccc(Br)cc2C(=O)O)cc1)C(=O)OCC (stereo not shown) [drawing 1091] | 64 µg/mL (≈ 138 µM) | 
6 | C=CCON=C(c1ccc(C(=O)Nc2ccc(Cl)cc2C(=O)O)cc1)c1ccco1 [drawing 1095] | 32 µg/mL (≈ 75.3 µM) | 
7 | O=C(Nc1ccc(Cl)cc1C(=O)O)c1ccc(C(=O)C2CCCC2)cc1 [drawing 1111] | 4 µg/mL (≈ 10.8 µM) | 
8 | O=C(Nc1ccc(Cl)cc1C(=O)O)c1cccc(C(=NO)c2ccco2)c1 [drawing 1121] |  | 8 µg/mL
9 | C=CCON=C(c1ccc(C(=O)Nc2ccc(Cl)cc2C(=O)O)cc1)c1ccco1 [drawing 1123] |  | 64 µg/mL
10 | Cc1ccc(C(=O)Nc2ccc(Br)cc2C(=O)O)cc1S(=O)(=O)N(C)c1ccc(Cl)cc1 [drawing 1134] |  | 1 µg/mL
